Tested on: human immuno deficiency virus
Assay: Effect of compounds of the formula I on HIV in H9 cells (HIV multiplication in cell culture, HIV antigen containing cells)
Type: cell-based
Conditions: Human immunodeficiency virus 1, HIV (HTLV-IIIB), 6-7 days, 37° C., read-out: Concentration for 50% inhibition (IC50) of human immuno deficiency virus multiplication in cell culture
Procedure: Test I. Effect of compounds of the formula I on HIV in H9 cells
HIV Infection of H9 Cells
H9 cells, 10^5 cells per well on a 24 well plate, suspended in 2 ml RPMI-medium containing 10% fetal calf serum […] penicillin, 10 mg/mil streptomycin sulfate and 2 mg/ml polybrene are exposed to HIV (HTLV-IIIB) and different concentrations of the test compounds. The plates are incubated at 37° C. in 5% CO2 for 6-7 days. The contents in each well is then homogenized with a pipette and transferred to a centrifuge tube. After centrifugation for 10 min at 1500 rpm the supernatant is removed and the cell pellet is analyzed by fixing in methanol on glass plates. Human HIV positive serum diluted 1:80 or 1:160 is added and incubated for 30 min at 37° C. The plate is then washed with phosphate-buffered saline (PBS) containing Ca^2+ and Mg^2+. Sheep antihuman conjugate (FITC) is added and after a new incubation the plate is again washed with PBS. Contrast staining is done with Evans blue and after drying the frequency of HIV antigen containing cells is determined in a microscope.

`Nc1ncnc2c1ncn2[C@@H]1C[C@H](CO)[C@@H](CO)O1` [9-[2',3'-Dideoxy-3'-C-(hydroxymethyl)-α-D-erythropentofuranosyl]-adenosine] was tested. Which IC50 did it give?
The IC50 was 10 µM.

Which IC50 does the source give for `Cc1cn([C@H]2C[C@H](CO)[C@@H](CO)O2)c(=O)[nH]c1=O` [1-[2',3'-Dideoxy-3'-C-(hydroxymethyl)-β-D-erythro-pentofuranosyl]-thymine] here?
The IC50 was 5 µM.

With `Cc1cn([C@@H]2C[C@H](CO)[C@@H](CO)O2)c(=O)[nH]c1=O` [1-(2',3'-Dideoxy-3'-C-(hydroxymethyl)-α-D-erythro-pentafuranosyl]thymine] as the compound, how does the IC50 read?
The IC50 was 10 µM.

Which IC50 does the source give for `Nc1ccn([C@H]2C[C@H](CO)[C@@H](CO)O2)c(=O)n1` [1-2',3'-Dideoxy-3'-C-(hydroxymethyl)-β-D-erythropentofuranosyl]-cytosine] here?
The IC50 was 0.01 µM.

For `Nc1ccn([C@@H]2C[C@H](CO)[C@@H](CO)O2)c(=O)n1` [1-[2',3'-Dideoxy-3'-C-(hydroxymethyl)-α-D-erythro-pentafuranosyl]cytosine], which IC50 is on record?
Its IC50 is 5 µM.

Tested on: H9 cells
Assay: Cellular toxicity on H9 cells (inhibition of cell multiplication)
Type: cell-based
Conditions: Homo sapiens, 1 mM, 48 h
Procedure: Test II. Cellular toxicity
H9 cells, 2×10^7 cells per plate, are incubated in RPMI-1640 medium containing 10% fetal calf serum, 70 mg/l penicillin, 100 mg/l streptomycin and 10 mM hepes, in absence or presence of test compounds. The number of cells per plate is determined after 48 h. Cells incubated in the absence of test compounds then underwent two cell division cycles.
F5000 cells, which are human embryo cells, 1×10^5 cells per plate, are incubated in Eagle's minimal essential medium, supplemented with Earle's sals, non-essential amino acids, 10% fetal calf serum, 10 mM hepes, 70 mg/l penicillin and 100 mg/l streptomycin, in absence or presence of test compounds. The number of cells per plate is determined after 48 h. Cells incubated in the absence of test compounds underwent one cell division cycle.

With `Nc1ccn([C@H]2C[C@H](CO)[C@@H](CO)O2)c(=O)n1` [1-2',3'-Dideoxy-3'-C-(hydroxymethyl)-β-D-erythropentofuranosyl]-cytosine] as the compound, how does the inhibition at 1000 µM read?
The inhibition at 1000 µM was 50%.
